# Data published in US9562053B2, “Benzo-fused heterocyclic derivatives useful as agonists of GPR120” (Janssen Pharmaceutica NV, priority 2013, dated 2017).
# Biological target: T1, long form of human GPR120 (Homo sapiens, UniProt Q5NUL3)
# T1 construct: host or cells: PathHunter CHO-K1 GPR120 β-Arrestin Cell Line
# T1 sequence (Q5NUL3 1-377 isoform Q5NUL3-1): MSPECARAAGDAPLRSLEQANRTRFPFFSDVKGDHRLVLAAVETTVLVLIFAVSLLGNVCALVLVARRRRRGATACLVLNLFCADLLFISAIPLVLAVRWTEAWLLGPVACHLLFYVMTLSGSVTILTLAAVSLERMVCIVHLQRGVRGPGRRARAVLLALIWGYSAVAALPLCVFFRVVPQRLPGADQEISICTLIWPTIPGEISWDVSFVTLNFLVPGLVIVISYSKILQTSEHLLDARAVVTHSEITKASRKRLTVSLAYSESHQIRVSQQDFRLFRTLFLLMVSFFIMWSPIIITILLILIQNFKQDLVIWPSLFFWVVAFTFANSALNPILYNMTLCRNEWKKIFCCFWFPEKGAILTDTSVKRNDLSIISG
# Test: Human GPR120 DiscoveRx PathHunter Beta-Arrestin Assay, Procedure β-arrestin A (3000 cells per well)
# Assay type: cell-based
# Details: read-out: GPR120 B-arrestin A EC50
# Source text: The binding of an agonist (medium/long chain fatty acids or small molecule agonists) to the G-protein-coupled receptor GPR120 activates phospholipase C, leading to release of intracellular Ca^+2 through the generation of inositol 1,4,5-trisphosphate (InsP3 or IP3). GPR120 activation can also trigger intracellular signaling via recruitment of β-Arrestin. In the present method, agonist-induced activation of the human GPR120 receptor is monitored through the use of PathHunter CHO-K1 GPR120 β-Arrestin Cell Line engineered by DiscoveRx, as detailed below. The cell lines are designed to co-express both the ProLink/Enzyme Donor (PK)-tagged GPCR and the Enzyme Activator (EA)-tagged β-Arrestin fusion proteins. Upon GPR120 receptor stimulation/activation, the EA-tagged β-Arrestin portion is translocated to the tagged receptor, where the two enzyme fragments are brought within close proximity. Under these conditions, these fragments can interact and form an active Beta-gal enzyme complex through Enzyme Fragment Complementation (EFC). This active Beta-gal complex can enzymatically hydrolyse the substrate to produce a detectable light signal; therefore, activation as a function of agonist concentration can be expressed as an EC50 value to determine relative compound activities. This in vitro assay therefore serves to assess compound agonist activity of the GPR120.
# In Procedure β-arrestin A, the cell used were PathHunter CHO-K1 GPR120 β-Arrestin Cell Line, expressing the long form of human GPR120 (Genbank accession number NM_181745), with 3000 cells per well.
# The selected CHO-K1 GPR120 β-Arrestin cells were cultured in Ham's F12 media supplemented with 10% fetal bovine serum (FBS), 1% Glutamine, 1×p/s, 800 μg/ml G418 and 300 μg/ml Hygromycin B (for selection). Cell stocks were maintained and grown in a sub-confluent state using standard cell culture procedures. The day before the experiment, the cells were harvested with non-enzymatic cell dissociation buffer and re-suspended in complete growth media at the desired concentration. A Corning 384-plate was then seeded with the proper number of cells in a volume of 25 μL, per well. The seeded plates were incubated overnight at 37° C.
# On the day of the experiment, the Assay Buffer containing (a) HBSS with Ca^++ and Mg^++, (b) 20 mM HEPES, and (c) 0.1% BSA stabilizer (pH 7.4) was prepared. The growth medium was gently removed from the cell plates and 20 μL of Assay Buffer added to each well. The plate was then incubated at 37° C. for 60 mins. Test compounds were serially diluted in Assay Buffer to desired concentrations (more particularly, to one or more of the following μM concentrations: 25 μM, 12.5 μM, 6.25 μM, 3.125 μM, 1.562 μM, 0.781 μM, 0.391 μM, 0.195 μM, 0.098 μM, 0.049 μM, 0.024 μM, 0.012 μM). Five μl of compound dilution was then added to each well and the plate incubated at 37° C. for 90 mins. The detection reagents were prepared according to the manufacture's instruction. Twelve μL of the detection reagents were added to each well and the plate incubated at room temperature for 60 mins.
# The plates were read on an EnVision instrument, using Protocol name: Luminescence, Plate type: 384 Costar, Measurement height: 3 mm, Measurement time: 1 s, Aperture: 384 Plate aperture. The % activity relative to the positive control was calculated using the following equation:
# The % Activity values were plotted versus the concentration of test compound and fitted to a sigmoidal dose-response curve with a Hill slope=1 (fixed value) using nonlinear regression with GraphPad Prism 5.0 to calculate the EC50 values. The Fitting Equation was: Y=Bottom+(Top−Bottom)/(1+10^((LogEC50−X)*HillSlope)), where X is the log of the concentration and Y is the response.
row,EC50,Structure (SMILES)
1,327 nM,"CCc1cc2cc(F)cc(COc3ccc(CCC(=O)O)c(C)c3C)c2o1 [Compound 3, 3-{4-[(2-Ethyl-5-fluoro-1-benzofuran-7-yl)methoxy]-2,3-dimethylphenyl}propanoic acid]"
2,232 nM,"CCCc1cc2cc(Cl)cc(COc3ccc(CCC(=O)O)c(C)c3C)c2o1 [Compound 31, 3-{4-[(5-Chloro-2-propyl-1-benzofuran-7-yl)methoxy]-2,3-dimethylphenyl}propanoic acid]"
3,532 nM,"Cc1cc2cc3c(c(COc4ccc(CCC(=O)O)c(C)c4C)c2o1)OCCO3 [Compound 90, 3-{2,3-Dimethyl-4-[(7-methyl-2,3-dihydrofuro[2,3-g][1,4]benzodioxin-5-yl)methoxy]phenyl}propanoic acid]"
4,440 nM,"CC#Cc1cc(COc2ccc(CCC(=O)O)c(C)c2C)c2oc(C)cc2c1 [Compound 83, 3-{2,3-Dimethyl-4-[(2-methyl-5-prop-1-yn-1-yl-1-benzofuran-7-yl)methoxy]phenyl}propanoic acid]"
5,470 nM,"Cc1c(CCC(=O)O)ccc(OCc2cc(F)cc3cc(CC(C)C)oc23)c1C [Compound 23, 3-(4-{[5-Fluoro-2-(2-methylpropyl)-1-benzofuran-7-yl]methoxy}-2,3-dimethylphenyl)propanoic acid]"
6,95 nM,"CCc1cc2cc(Br)cc(COc3ccc(CCC(=O)O)c(C)c3C)c2o1 [Compound 45, 3-{4-[(5-Bromo-2-ethyl-1-benzofuran-7-yl)methoxy]-2,3-dimethylphenyl}propanoic acid]"
7,169 nM,"Cc1c(CCC(=O)O)ccc(OCc2cc(OC(F)(F)F)cc3cc(C=CF)oc23)c1C (mixture of isomers) [Compound 97, 3-(4-{[2-(2-Fluoroethenyl)-5-(trifluoromethoxy)-1-benzofuran-7-yl]methoxy}-2,3-dimethylphenyl)propanoic acid]"
8,616 nM,"CCOc1cc(COc2ccc(CCC(=O)O)c(C)c2C)c2oc(CC)cc2c1 [Compound 29, 3-{4-[(5-Ethoxy-2-ethyl-1-benzofuran-7-yl)methoxy]-2,3-dimethylphenyl}propanoic acid]"
9,2910 nM,"Cc1c(CCC(=O)O)ccc(OCc2cc(F)cc3cc(C(F)F)oc23)c1C [Compound 32, 3-(4-{[2-(Difluoromethyl)-5-fluoro-1-benzofuran-7-yl]methoxy}-2,3-dimethylphenyl)propanoic acid]"
10,146 nM,"CCCc1cc2cc(Cl)cc(COc3ccc(CCC(=O)O)c(F)c3F)c2o1 [Compound 59, 3-{4-[(5-Chloro-2-propyl-1-benzofuran-7-yl)methoxy]-2,3-difluorophenyl}propanoic acid]"
11,144 nM,"Cc1cc2cc(OC(F)F)cc(COc3ccc(CCC(=O)O)c(C)c3C)c2o1 [Compound 76, 3-(4-{[5-(Difluoromethoxy)-2-methyl-1-benzofuran-7-yl]methoxy}-2,3-dimethylphenyl)propanoic acid]"
12,223 nM,"CCc1cc2cc(Cl)c(OC(F)F)c(COc3ccc(CCC(=O)O)c(C)c3C)c2o1 [Compound 69, 3-(4-{[5-Chloro-6-(difluoromethoxy)-2-ethyl-1-benzofuran-7-yl]methoxy}-2,3-dimethylphenyl)propanoic acid]"
13,507 nM,"Cc1c(CCC(=O)O)ccc(OCc2cc(F)cc3cc(C#N)oc23)c1C [Compound 49, 3-{4-[(2-Cyano-5-fluoro-1-benzofuran-7-yl)methoxy]-2,3-dimethylphenyl}propanoic acid]"
14,817 nM,"Cc1cc2c(COc3ccc(CCC(=O)O)c(C)c3C)cc(Cl)cc2o1 [Compound 81, 3-{4-[(6-Chloro-2-methyl-1-benzofuran-4-yl)methoxy]-2,3-dimethylphenyl}propanoic acid]"
15,230 nM,"CCc1cc2cc(Cl)c(OC)c(COc3ccc(CCC(=O)O)c(C)c3C)c2o1 [Compound 44, 3-{4-[(5-Chloro-2-ethyl-6-methoxy-1-benzofuran-7-yl)methoxy]-2,3-dimethylphenyl}propanoic acid]"
16,458 nM,"COCc1cc2cc(F)cc(COc3ccc(CCC(=O)O)c(C)c3C)c2o1 [Compound 21, 3-(4-{[5-Fluoro-2-(methoxymethyl)-1-benzofuran-7-yl]methoxy}-2,3-dimethylphenyl)propanoic acid]"
17,434 nM,"Cc1nc2cc(Cl)cc(COc3ccc(CCC(=O)O)c(C)c3C)c2o1 [Compound 84, 3-{4-[(5-Chloro-2-methyl-1,3-benzoxazol-7-yl)methoxy]-2,3-dimethylphenyl}propanoic acid]"
18,626 nM,"CCCc1cc2cc(Cl)cc(COc3ccc(CCC(=O)O)c(C)c3C#N)c2o1 [Compound 41, 3-{4-[(5-Chloro-2-propyl-1-benzofuran-7-yl)methoxy]-3-cyano-2-methylphenyl}propanoic acid]"
19,1670 nM,"Cc1c(CCC(=O)O)ccc(OCc2cc(F)cc3cc(C4CCCC4)oc23)c1C [Compound 18, 3-{4-[(2-Cyclopentyl-5-fluoro-1-benzofuran-7-yl)methoxy]-2,3-dimethylphenyl}propanoic acid]"
20,706 nM,"Cc1oc2cccc(COc3ccc(CCC(=O)O)c(C)c3C)c2c1C [Compound 60, 3-{4-[(2,3-Dimethyl-1-benzofuran-4-yl)methoxy]-2,3-dimethylphenyl}propanoic acid]"
21,197 nM,"CCCc1cc2cc(I)cc(COc3ccc(CCC(=O)O)c(C)c3C)c2o1 [Compound 47, 3-{4-[(5-Iodo-2-propyl-1-benzofuran-7-yl)methoxy]-2,3-dimethylphenyl}propanoic acid]"
22,5210 nM,"Cc1c(CCC(=O)O)ccc(OCc2cc(F)cc3cc(C(F)(F)F)oc23)c1C [Compound 4, 3-(4-{[5-Fluoro-2-(trifluoromethyl)-1-benzofuran-7-yl]methoxy}-2,3-dimethylphenyl)propanoic acid]"
23,176 nM,"CCCc1cc2cc(OC(F)F)cc(COc3ccc(CCC(=O)O)c(C)c3C)c2o1 [Compound 77, 3-(4-{[5-(Difluoromethoxy)-2-propyl-1-benzofuran-7-yl]methoxy}-2,3-dimethylphenyl)propanoic acid]"
24,73 nM,"Cc1cc2cc(OC(F)(F)F)cc(COc3ccc(CCC(=O)O)c4c3CCC4)c2o1 [Compound 55, 3-(7-{[2-Methyl-5-(trifluoromethoxy)-1-benzofuran-7-yl]methoxy}-2,3-dihydro-1H-inden-4-yl)propanoic acid]"
25,594 nM,"Cc1c(CCC(=O)O)ccc(OCc2cc(Cl)cc3cc(C=CF)oc23)c1C (mixture of isomers) [Compound 88, 3-(4-((5-Chloro-2-(2-fluorovinyl)benzofuran-7-yl)methoxy)-2,3-dimethylphenyl)propanoic acid]"
26,249 nM,"Cc1oc2cc(Cl)cc(COc3ccc(CCC(=O)O)c(C)c3C)c2c1C [Compound 80, 3-{4-[(6-Chloro-2,3-dimethyl-1-benzofuran-4-yl)methoxy]-2,3-dimethylphenyl}propanoic acid]"
27,148 nM,"Cc1c(CCC(=O)O)ccc(OCc2cc(OC(F)(F)F)cc3cc(CC(F)F)oc23)c1C [Compound 96, 3-(4-{[2-(2,2-Difluoroethyl)-5-(trifluoromethoxy)-1-benzofuran-7-yl]methoxy}-2,3-dimethylphenyl)propanoic acid]"
